The source of these data is US6586633B1, “Amine derivatives” (Pola Chemical Industries, Inc., priority 2001, dated 2003).

Holding throughout (assay): Measurement of antifungal activity (minimum inhibitory concentration), agar dilution
Assay type in all cases: cell-based
On the technique in general: In agar dilution, organisms are placed on agar that contains the substance at set levels.

Assay [1] relates to T. mentagrophytes IF05811. The conditions noted are these: Sabouraud's agar, one week at 27° C.; for MIC: Trichophyton mentagrophytes, 168 h, read-out: MIC value (minimum compound concentration that definitely inhibited any visible growth). Here is the method: (§1) Measurement of Antifungal Activity (Measurement of Minimum Inhibitory Concentration)
(§2) Antifungal activity of representative compounds of the present invention against dermatophytes was investigated.
(§3) Briefly, strains of dermatophytes to be tested were grown on slant media prepared with Sabouraud's agar (product of Nissuiseiyaku; pepton 1.0%, glucose 4.0%, agar 1.5%, pH 5.9) at 27° C. for two weeks, so as to allow sufficient production of conidiospores. Subsequently, sterilized saline solution containing 0.05% (wt/vol) TWEEN 80 was added thereto, and while the surface of the each medium was scraped with a platinum loop, the conidiospores were deaggregated and suspended in the saline solution. The suspension was filtered through a double face sterilized gauze sheet so as to remove agar and hypha pellets. The filtrate was diluted with a saline solution so as to make the concentration of the conidiospores decrease to 10^6/ml by use of a cytometer, and the resultant dilute filtrate served as a test dermatophytes solution. Meanwhile, a stock solution was prepared by adding 1 ml of dimethylsulfoxide to 10 mg of a compound to be tested. An aliquot (500 μl) of the stock solution was combined with dimethylsulfoxide (500 μl), to thereby prepare a 2-fold dilute solution. Dilution was similarly repeated until 13 different dilute solutions ranging from 10 to 0.0025 mg/ml (concentrations of the ultimate test system: 100-0.025 μg/ml) were obtained. 100 μl each of the diluted solutions of the test compound was dispensed into the sterilized petri dish. A Sabouraud's agar (pepton 1.0%, glucose 4.0%, agar 1.5%, pH 5.9; 10 ml), which had been sterilized and dissolved, was added thereto, and the mixture was thoroughly mixed and solidified. Next, the above-prepared test dermatophytes solution was planted in amounts of 5 μl by use of a microplanter.

A further assay concerns T. violaceum TIMM1264. The conditions noted are these: Sabouraud's agar, one week at 27° C.; for MIC: Trichophyton violaceum, 168 h, read-out: MIC value (minimum compound concentration that definitely inhibited any visible growth). On the procedure: as §1, §2, §3
The test system of the next assay is M. gypseum IF08231. The conditions noted are these: M. gypseum IF08231 (Table 2), Sabouraud's agar, one week at 27° C.; for MIC: Nannizzia gypsea, 168 h, read-out: MIC value (minimum compound concentration that definitely inhibited any visible growth). Here is the method:
as §1, §2, §3

Another assay concerns T. rubrum IF05808. The conditions noted are these: Sabouraud's agar, one week at 27° C.; for MIC: Trichophyton rubrum, 168 h, read-out: MIC value (minimum compound concentration that definitely inhibited any visible growth). On the procedure: as §1, §2, §3
In assay [2] the test system is T. mentagrophytes TIMM1177. To be noted: Sabouraud's agar, one week at 27° C.; for MIC: Trichophyton mentagrophytes, 168 h, read-out: MIC value (minimum compound concentration that definitely inhibited any visible growth). On the procedure: as §1, §2, §3
In another assay the test system is T. rubrum IF09185. To be noted: Sabouraud's agar, one week at 27° C.; for MIC: Trichophyton rubrum, 168 h, read-out: MIC value (minimum compound concentration that definitely inhibited any visible growth). On the procedure:
as §1, §2, §3

The next assay deals with M. canis TIMM0760. The conditions noted are these: Sabouraud's agar, one week at 27° C.; for MIC: Microsporum canis, 168 h, read-out: MIC value (minimum compound concentration that definitely inhibited any visible growth). Here is the method: as §1, §2, §3
Assay [3] deals with T. mentagrophytes TIMM1189. The conditions noted are these: Sabouraud's agar, one week at 27° C.; for MIC: Trichophyton mentagrophytes, 168 h, read-out: MIC value (minimum compound concentration that definitely inhibited any visible growth). On the procedure:
as §1, §2, §3

In assay [4] the test system is T. mentagrophytes IF07552. The conditions noted are these: Sabouraud's agar, one week at 27° C.; for MIC: Trichophyton mentagrophytes, 168 h, read-out: MIC value (minimum compound concentration that definitely inhibited any visible growth). Here is the method:
as §1, §2, §3

`C=Cc1cccc(CN(C)Cc2ccc(C(C)(C)C)cc2)c1.Cl` [Compound 81, N-(4-tert-Butylbenzyl)-N-methyl-(3-vinylbenzyl)amine Hydrochloride]: the MIC in assay [1] was 0.39 µg/mL; with T. violaceum TIMM1264, 0.78 µg/mL; in the assay on M. gypseum IF08231, 0.39 µg/mL; with T. rubrum IF05808 it was 0.2 µg/mL; in assay [2], 0.39 µg/mL; with T. rubrum IF09185, 0.39 µg/mL. Moreover, the MIC was determined as 0.2 µg/mL with M. canis TIMM0760, 0.78 µg/mL in [3] and 0.39 µg/mL in [4].

With `C=C(C)c1cc(C)cc(CN(C)Cc2ccc(C(C)(C)C)cc2)c1.Cl` [Compound 88, N-(4-tert-Butylbenzyl)-N-methyl-(3-isopropenyl-5-methylbenzyl)amine hydrochloride], the MIC was determined as 0.1 µg/mL in assay [1]; 0.1 µg/mL in the assay on T. violaceum TIMM1264; 0.1 µg/mL with M. gypseum IF08231; 0.05 µg/mL in the assay with T. rubrum IF05808; 0.1 µg/mL in assay [2]; 0.05 µg/mL in the assay with T. rubrum IF09185. For the same compound, the MIC (in the assay on M. canis TIMM0760; in assay [3]; in assay [4]) was 0.05 µg/mL throughout.

For `C=C(CC)c1cccc(CN(C)Cc2ccc(C(C)(C)C)cc2)c1.Cl` [Compound 95, N-(4-tert-Butylbenzyl)-N-methyl-[3-(1-ethylvinyl)benzyl]amine Hydrochloride], the MIC in [1] came to 1.56 µg/mL; with T. violaceum TIMM1264, 0.78 µg/mL; in the assay on M. gypseum IF08231 it was 3.12 µg/mL; in the assay on T. rubrum IF05808, 0.39 µg/mL; in assay [2] it was 0.78 µg/mL; in the assay with T. rubrum IF09185 it was 0.39 µg/mL. Further, the MIC turned out to be 0.2 µg/mL in the assay on M. canis TIMM0760, 0.78 µg/mL in assay [3] and 0.78 µg/mL in assay [4].

As to `C/C=C(/C)c1cccc(CN(C)Cc2ccc(C(C)(C)C)cc2)c1.Cl` [Compound 97, cis-N-(4-tert-Butylbenzyl)-N-methyl-[3-(1-methyl-1-propenyl)benzyl]amine Hydrochloride], the “MIC value (minimum compound concentration that definitely inhibited any visible growth)” value in [1] came to 1.56 µg/mL; with T. violaceum TIMM1264 it was 1.56 µg/mL; with M. gypseum IF08231, 3.12 µg/mL; against T. rubrum IF05808, 1.56 µg/mL; in assay [2] it was 1.56 µg/mL; with T. rubrum IF09185, 0.78 µg/mL. The results for the “MIC value (minimum compound concentration that definitely inhibited any visible growth)” value (with M. canis TIMM0760; in assay [3]; in assay [4]) were 0.39 µg/mL, 0.78 µg/mL and 3.12 µg/mL, respectively.

In the case of `C=C(C)c1cc(F)cc(CN(C)Cc2ccc(C(C)(C)C)cc2)c1.Cl` [Compound 101, N-(4-tert-Butylbenzyl)-N-methyl-(3-fluoro-5-isopropenylbenzyl)amine Hydrochloride], the MIC in [1] came out at 0.1 µg/mL; in the assay with T. violaceum TIMM1264, 0.1 µg/mL; with M. gypseum IF08231, 0.2 µg/mL; in the assay on T. rubrum IF05808, 0.05 µg/mL; in assay [2], 0.2 µg/mL; in the assay on T. rubrum IF09185 it was 0.1 µg/mL. For the same compound, the MIC (with M. canis TIMM0760; in assay [3]; in [4]) was 0.1 µg/mL throughout.

Take `C=C(C)c1ccccc1CN(C)Cc1ccc(C(C)(C)C)cc1.Cl` [Compound 108, N-(4-tert-Butylbenzyl)-N-methyl-(2-isopropenylbenzyl)amine Hydrochloride]: the MIC in assay [1] stood at 1.56 µg/mL; in the assay with T. violaceum TIMM1264, 3.12 µg/mL; in the assay on M. gypseum IF08231, 1.56 µg/mL; in the assay with T. rubrum IF05808, 0.78 µg/mL; in assay [2] it was 3.12 µg/mL; in the assay with T. rubrum IF09185 it was 0.78 µg/mL. For the same compound, the MIC (in the assay with M. canis TIMM0760; in assay [3]; in [4]) was 1.56 µg/mL throughout.

Take `C=C(C)c1cccc(CN(CC)Cc2ccc(C(C)(C)C)cc2)c1.Cl` [Compound 114, N-(4-tert-Butylbenzyl)-N-ethyl-(3-isopropenylbenzyl)amine Hydrochloride]: the MIC in [1] is 0.78 µg/mL; with T. violaceum TIMM1264 it was 0.39 µg/mL; in the assay with M. gypseum IF08231 it was 0.2 µg/mL; in the assay on T. rubrum IF05808, 0.2 µg/mL; in assay [2], 0.39 µg/mL; in the assay on T. rubrum IF09185, 0.2 µg/mL. Also, the MIC with M. canis TIMM0760 worked out at 0.2 µg/mL; in assay [3] it was 0.39 µg/mL; in assay [4], 0.39 µg/mL.

For `C=C(C)c1cc(CN(C)Cc2ccc(C(C)(C)C)cc2)ccc1C.Cl` [Compound 126, N-(4-tert-Butylbenzyl)-N-methyl-(3-isopropenyl-4-methylbenzyl)amine Hydrochloride], the MIC in assay [1] was found to be 12.5 µg/mL; in the assay on T. violaceum TIMM1264, 3.12 µg/mL; in the assay on M. gypseum IF08231, 6.25 µg/mL; in the assay on T. rubrum IF05808 it was 3.12 µg/mL; in assay [2] it was 12.5 µg/mL; in the assay on T. rubrum IF09185, 3.12 µg/mL. In addition, the MIC amounted to 1.56 µg/mL in the assay with M. canis TIMM0760, 3.12 µg/mL in [3] and 3.12 µg/mL in assay [4].
